Data published in US10085983B2, “Azabicyclo derivatives, process for preparation thereof and medical use thereof” (Shanghai Haiyan Pharmaceutical Technology Co., Ltd., priority 2014, dated 2018).

Columns and labels:
[1] = target: T790M/L858R double mutant EGFR kinase (Homo sapiens (Human), UniProt P00533, L858R/T790M); experiment: z'-lyte assay of inhibitory activity on T790M/L858R double mutant EGFR kinase; assay type: biochemical; settings: for Selective inhibitory activity against enzymes [IC50 (EGFR WT)/IC50 (T790M/L858R)]: ratio of enzyme IC50 values; for IC50: z'-lyte assay, 25 μM ATP
[2] = target: EGFR phosphorylation in H1975 (EGFR T790M mutant) cells (Homo sapiens (Human), UniProt P00533, L858R/T790M); experiment: Inhibition of EGFR phosphorylation in H1975 cells (ELISA); assay type: cell-based; settings: for IC50: ELISA of EGFR phosphorylation, 1 h compound treatment, read-out: H1975 cell (IC50/μM); for Selective inhibitory activity against targets at the cell level [IC50 (A431 cell)/IC50 (H1975 cell)]: ratio of ELISA IC50 values;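 as to all read-outs here: Phospho-EGFR in cell lysates measured by capture-antibody ELISA with TMB substrate after compound exposure, cells given DMSO alone (0.5% final) serving as control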
Protocol: (§1) In the following methods, the reagents used, the preparation methods of solutions, the cell treatment and the preparation steps of the lysis solution, as well as the ELISA assay steps, were carried out according to the instructions of R&D DYC3570, R&D DYC1095E and R&D DYC1095BE.
(§2) Cell lysis solution: Cell lysis buffer+10 μg/mL Aprotinin (Sigma)+10 μg/mL Leupeptin (Sigma), prepared on site.
(§3) Wash buffer: PBS buffer containing 0.05% (v/v) Tween-20.
(§4) Blocking solution: PBS buffer containing 1% (w/v) BSA.
(1) H1975 cells (purchased from the Cell Bank of the Type Culture Collection Committee, Chinese Academy of Sciences) were seeded into 96-well plates at a density of 1×10^4/well, each cell containing 90 μl of RPMI1640 medium with 10% (V/V) FBS, and cultured overnight at 37° C. in 5% (v/v) CO2.
(2) The compounds to be tested were diluted in accordance with the drug dilution method in the MTT assay. 10 μL of the diluted compound or diluted DMSO was added to the corresponding wells of the cell culture plate, and the final concentration of DMSO was 0.5% (V/V). The plate was cultured at 37° C. in 5% (v/v) CO2 for 1 h. The cell culture system treated with DMSO alone was used as cell control.
(3) The medium was removed and then 100 μL of cell lysis solution was added. The plate was sealed and placed in a refrigerator at −80° C. overnight. The cell lysis buffer was used as blank control.
The assay was conducted according to the instructions given in R&D DYC1095E or R&D DYC1095BE.
(1) R&D capture antibody ((DYC1095BE or DYC1095E)) was diluted with PBS in the proportion of 1:180.
(§5) (2) The plate was washed 3 times with 360 μL of the wash buffer.
(3) 300 μL of the blocking solution was added and the plate was incubated at 25° C. with shaking for 2 hours.
(4) The plate was washed 3 times with 360 μL of the wash buffer.
(§6) (5) 40 μL of cell lysis buffer and 60 μL of cell lysis solution were added and the plate was incubated at 25° C. with shaking for 2 hours.
(§7) (6) The plate was washed 3 times with 360 μL of the wash buffer.
(§8) (7) The detection antibody was diluted with the detection antibody diluent in the proportion specified in the instructions of the kit. 100 μL of the diluted antibody was added to each well and the plate was incubated at 25° C. with shaking in dark for 1 h.
(8) The plate was washed 3 times with 360 μL of wash buffer.
(9) A reagent and B reagent in the TMB substrate (R&D DY999) were mixed in 1:1. 100 μL of the mixture was added to each well and incubated in dark at 25° C. with shaking for 20 min.
(§9) (10) 50 μL of 2N H2SO4 was added to each well.
(11) The plate was read with a microplate reader (Thermo Multiskan K3). OD 450 values and OD570 values of the cell control, blank control, and drug treatment wells were measured. ODcell, ODblank and ODdrug treatment were obtained by subtracting the corresponding OD570 value from the OD 450 value of the same well.
2.3 Data Analysis Inhibition rate (%)=100%×(ODcell−ODdrug treatment)/(ODcell−ODblank)

[3] = target: EGFR phosphorylation in A431 (EGFR wild-type) cells (Homo sapiens (Human), UniProt P00533); experiment: Inhibition of EGFR phosphorylation in A431 cells (ELISA); assay type: cell-based; settings: 1 h compound treatment, EGF stimulation, read-out: A431 cell (IC50/μM)
Protocol: as §1
I. Reagents and Solutions
as §2, §3, §4
3.1 A431 Cell Treatment and Testing Procedures
(1) A431 cells (purchased from the Cell Bank of the Type Culture Collection Committee, Chinese Academy of Sciences) were seeded in 96-well plates at a density of 1×10^4/well in 90 μl of DMEM medium containing 10% FBS and cultured at 37° C. in 5% CO2 overnight.
(2) The A431 cell culture medium was replaced with 90 μl of serum-free DMEM medium and the plate was cultured overnight.
(3) The compound to be tested was diluted according to the drug dilution method in MTT assay. 10 μL of the diluted compound or diluted DMSO was added to the corresponding wells of the cell culture plate, and the final concentration of DMSO was 0.5%. The plate was cultured at 37° C. in 5% CO2 for 1 hour. […] The cells without EGF and drug treatment were used as cell control, and the cells treated with EGF without drugs were used as EGF control.
(4) The medium was removed and then 100 μL of the cell lysis solution was added. The plate was sealed and placed in a refrigerator at −80° C. overnight.
The assay was conducted according to the instructions given in R&D DYC3570E.
(1) R&D capture antibody (DYC3570E) was diluted with PBS in the proportion of 1:180.
as §5
(3) 200 μL of the blocking solution was added and the plate was incubated at 25° C. with shaking for 2 hours.
(4) The plate was washed 3 times with 360 μL of wash buffer.
as §6, §7, §8
(8) The plate was washed 3 times with 360 μL of the wash buffer.
(9) A reagent and B reagent in TMB substrate (R&D DY999) were mixed in 1:1. 100 μL of the mixture was added to each well and incubated in dark at 25° C. with shaking for 20 min.
as §9
(11) The plate was read with a microplate reader (Thermo Multiskan K3). OD 450 values and OD570 values of the cell control, blank control, and drug treatment wells were measured. ODEGF, ODdrug and ODcell were obtained by subtracting the corresponding OD570 value from the OD 450 value of the same well.
3.3 Data Analysis Inhibition rate (%)=100%×(ODEGF−ODdrug)/(ODEGF−ODcell)

[4] = tested on: H1975 cells; experiment: Cell growth inhibition by MTT assay, H1975 cells; assay type: cell-based; settings: for IC50: MTT assay, 72 hours; for Selective inhibitory activity against cell growth [IC50 (A431 cell)/IC50 (H1975 cell)]: ratio of MTT IC50 values;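 as to all read-outs here: MTT read-out in 96-well plates after 72 h compound exposure of H1975 and A431 cells, with selectivity given as the A431 IC50 divided by the H1975 IC50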
Protocol: (§10) The steps of the MTT assay were carried out using methods well known to those skilled in the art, and all the reagents used in the methods are commercially available.
(§11) After the first wash, another 1.5 mL of trypsin/EDTA was added to digest the adherent cells until the cells detached. Then 3.5 mL of the culture medium was added to terminate the digestion. The digested cell suspension was transferred to a 15 mL centrifuge tube and centrifuged at 1300 rpm for 3 minutes. The supernatant was discarded and the cells were resuspended in fresh medium. The cells were then counted and diluted to the following concentrations: 27,800 cells per milliliter of H1975 cells, 33,300 cells per milliliter of A431 cells and NIH3T3 cells (purchased from the Cell Bank of the Type Culture Collection Committee, Chinese Academy of Sciences).
(§12) After the drug was added, the cells were incubated in an incubator for 72 hours. 10 μL of 5 mg/ml MTT (Sigma, M5655) solution was added to each well. The 96-well plate was then incubated in a 37° C. and 5% CO2 incubator for 4 h.
(§13) The plate was then centrifuged at 2000 rpm for 5 min. After the supernatant was removed, 150 μl of DMSO was added to each well and the plate was shaken in a shaker until all crystal violet was dissolved.

[5] = tested on: A431 cells; experiment: Cell growth inhibition by MTT assay, A431 cells; assay type: cell-based; settings: 72 hours
Protocol: as §10, §11, §12, §13

[6] = tested on: NIH3T3 cells; experiment: Toxicity test on NIH3T3 cells by MTT assay; assay type: cell-based; settings: 72 hours
Protocol: as §10, §11, §12, §13

[7] = target: wild-type EGFR kinase (Homo sapiens (Human), UniProt P00533); settings: read-out: EGFR WT (IC50/μM); z'-lyte assay, 10 μM ATP
Chain of wild-type EGFR kinase (P00533 25-1210): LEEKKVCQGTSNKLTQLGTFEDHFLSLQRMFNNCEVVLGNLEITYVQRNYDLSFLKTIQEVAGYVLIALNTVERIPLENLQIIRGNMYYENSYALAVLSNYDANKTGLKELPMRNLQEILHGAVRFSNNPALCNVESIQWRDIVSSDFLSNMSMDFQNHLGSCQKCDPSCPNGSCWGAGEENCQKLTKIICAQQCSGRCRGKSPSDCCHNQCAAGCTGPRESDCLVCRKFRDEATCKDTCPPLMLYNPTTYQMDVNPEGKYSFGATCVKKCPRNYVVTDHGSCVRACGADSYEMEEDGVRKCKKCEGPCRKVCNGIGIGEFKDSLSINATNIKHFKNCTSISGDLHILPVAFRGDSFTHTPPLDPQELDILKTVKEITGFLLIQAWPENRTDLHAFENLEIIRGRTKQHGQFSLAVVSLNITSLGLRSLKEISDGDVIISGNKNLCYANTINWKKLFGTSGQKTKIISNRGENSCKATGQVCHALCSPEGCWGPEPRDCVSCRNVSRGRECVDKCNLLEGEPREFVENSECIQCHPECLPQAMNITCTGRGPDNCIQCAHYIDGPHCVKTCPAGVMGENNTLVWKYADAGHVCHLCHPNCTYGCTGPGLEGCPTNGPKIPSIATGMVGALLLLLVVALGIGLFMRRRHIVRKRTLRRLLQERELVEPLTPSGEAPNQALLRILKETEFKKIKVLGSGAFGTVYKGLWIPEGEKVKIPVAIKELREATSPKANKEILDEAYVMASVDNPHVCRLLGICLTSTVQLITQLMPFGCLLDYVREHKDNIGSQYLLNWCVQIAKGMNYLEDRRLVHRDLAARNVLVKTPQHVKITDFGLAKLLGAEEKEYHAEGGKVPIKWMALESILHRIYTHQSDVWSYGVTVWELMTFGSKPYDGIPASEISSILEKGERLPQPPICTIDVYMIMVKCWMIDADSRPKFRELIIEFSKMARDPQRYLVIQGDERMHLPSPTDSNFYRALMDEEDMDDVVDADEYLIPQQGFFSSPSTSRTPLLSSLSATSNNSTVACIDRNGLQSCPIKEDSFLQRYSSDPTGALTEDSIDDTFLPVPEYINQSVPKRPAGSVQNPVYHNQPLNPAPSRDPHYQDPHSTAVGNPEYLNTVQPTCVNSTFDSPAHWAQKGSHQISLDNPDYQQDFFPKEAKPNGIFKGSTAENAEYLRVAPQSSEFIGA
Protocol: All reagents used in the following z′-lyte assay were purchased from Invitrogen.
The working concentrations of each component in 10 μL wild-type EGFR kinase reaction system were: 10 μM ATP, 0.8 ng/μL wild-type EGFR kinase, 2 μM Tyr04 substrate (Invitrogen, PV3193). The concentration of DMSO after addition of the compound to be tested was 2 vol %.
10 mM drug stock solution was dissolved at room temperature and gradiently diluted to a final concentration of 4-0.002 μM with 8 vol % DMSO solution. […] Then 2.5 μl of ATP was added to initiate the reaction. Wherein, ATP was replaced by the reaction buffer in well C1, no drug was added to well C2, and the phosphorylated substrate was added to well C3 according to the instructions. The mixture was allowed to react at 25° C. in a shaker in dark for 60 min. 5 μL of Development Reagent B (Invitrogen, diluted with TR-FRET dilution buffer) was added and allowed to react at room temperature in the shaker for 60 minutes.
The inhibition rate was calculated according to the following method (refer to the instructions of Invitrogen, PV3193):
1. ER=Coumarin Emission (450 nm)/Fluorescein Emission (520 nm)
The half-inhibitory concentration IC50 was obtained through fitting calculation by using XLFIT 5.0 software (IDBS, UK).

Chain of EGFR phosphorylation in A431 (EGFR wild-type) cells (P00533 25-1210): as above
Chain of EGFR phosphorylation in H1975 (EGFR T790M mutant) cells (P00533 25-1210 T790M/L858R): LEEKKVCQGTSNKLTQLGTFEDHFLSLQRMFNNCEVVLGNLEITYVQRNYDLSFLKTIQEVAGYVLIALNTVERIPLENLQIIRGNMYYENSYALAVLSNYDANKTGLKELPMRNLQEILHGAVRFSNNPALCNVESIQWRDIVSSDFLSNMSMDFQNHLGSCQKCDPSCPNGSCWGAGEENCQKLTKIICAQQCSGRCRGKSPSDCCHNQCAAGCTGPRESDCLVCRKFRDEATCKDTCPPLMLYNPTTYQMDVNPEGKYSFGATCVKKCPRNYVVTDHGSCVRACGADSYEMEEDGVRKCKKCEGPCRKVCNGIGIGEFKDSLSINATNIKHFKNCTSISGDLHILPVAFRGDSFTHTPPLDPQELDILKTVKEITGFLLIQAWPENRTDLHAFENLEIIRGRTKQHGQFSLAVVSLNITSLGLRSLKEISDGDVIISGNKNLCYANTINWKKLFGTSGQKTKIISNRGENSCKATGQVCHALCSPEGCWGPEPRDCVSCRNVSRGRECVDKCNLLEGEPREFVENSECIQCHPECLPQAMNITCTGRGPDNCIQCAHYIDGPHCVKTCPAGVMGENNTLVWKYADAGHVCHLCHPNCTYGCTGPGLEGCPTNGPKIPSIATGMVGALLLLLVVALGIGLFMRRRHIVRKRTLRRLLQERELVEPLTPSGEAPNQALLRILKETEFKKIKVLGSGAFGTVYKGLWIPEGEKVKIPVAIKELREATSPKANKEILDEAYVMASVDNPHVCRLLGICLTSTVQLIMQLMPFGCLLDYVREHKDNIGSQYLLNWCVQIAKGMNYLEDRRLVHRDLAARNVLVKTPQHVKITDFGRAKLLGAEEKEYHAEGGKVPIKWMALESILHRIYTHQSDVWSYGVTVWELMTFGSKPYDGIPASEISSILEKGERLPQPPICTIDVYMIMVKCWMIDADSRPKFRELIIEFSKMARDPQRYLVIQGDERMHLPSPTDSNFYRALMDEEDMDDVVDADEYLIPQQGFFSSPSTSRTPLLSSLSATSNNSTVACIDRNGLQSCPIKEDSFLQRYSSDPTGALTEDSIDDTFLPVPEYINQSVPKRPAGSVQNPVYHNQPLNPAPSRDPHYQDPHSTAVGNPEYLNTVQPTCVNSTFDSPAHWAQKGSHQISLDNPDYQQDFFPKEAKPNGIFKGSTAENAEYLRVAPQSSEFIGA
Chain of T790M/L858R double mutant EGFR kinase (P00533 25-1210 T790M/L858R): as above

SMILES: C=CC(=O)Nc1cc(Nc2ncc3ccc(-c4cnn(C)c4)n3n2)c(OC)cc1N(C)CCN(C)C [Compound J-1, N-(2-((2-(dimethylamino)ethyl)(methyl)amino)-4-methoxy-5-(7-(1-methyl-1H-pyrazol-4-yl)pyrrolo[1,2-f][1,2,4]triazin-2-ylamino)phenyl)acrylamide]
- Selective inhibitory activity against enzymes [IC50 (EGFR WT)/IC50 (T790M/L858R)] [1]: 4
- IC50 [1]: 0.001 µM
- IC50 [2]: 0.012 µM
- Selective inhibitory activity against targets at the cell level [IC50 (A431 cell)/IC50 (H1975 cell)] [2]: 9.3
- IC50 [3]: 0.112 µM
- IC50 [4]: < 0.00457 µM
- Selective inhibitory activity against cell growth [IC50 (A431 cell)/IC50 (H1975 cell)] [4]: 71.6
- IC50 [5]: 0.327 µM
- IC50 [6]: 4.83 µM
- IC50 [7]: 0.004 µM

SMILES: C=CC(=O)Nc1cc(Nc2ncc3ccc(-c4cnn(C)c4)n3n2)c(OC)cc1N1CCC(N(C)C)CC1 [Compound J-2, N-(2-(4-(dimethylamino)piperidin-1-yl)-4-methoxy-5-(7-(1-methyl-1H-pyrazol-4-yl)pyrrolo[1,2-f][11,2,4]triazin-2-ylamino)phenyl)acrylamide]
- Selective inhibitory activity against enzymes [IC50 (EGFR WT)/IC50 (T790M/L858R)] [1]: 11.5
- IC50 [1]: 0.002 µM
- IC50 [2]: 0.025 µM
- Selective inhibitory activity against targets at the cell level [IC50 (A431 cell)/IC50 (H1975 cell)] [2]: 12.1
- IC50 [3]: 0.303 µM
- IC50 [4]: 0.011 µM
- Selective inhibitory activity against cell growth [IC50 (A431 cell)/IC50 (H1975 cell)] [4]: 36.6
- IC50 [5]: 0.403 µM
- IC50 [6]: 5.46 µM
- IC50 [7]: 0.023 µM

SMILES: C=CC(=O)Nc1cc(Nc2ncc3ccc(-c4cnn(C)c4)n3n2)c(OC)cc1OCCN(C)C [Compound J-3, N-(2-(2-(dimethylamino)ethoxyl)-4-methoxy-5-(7-(1-methyl-1H-pyrazol-4-yl)pyrrolo[1,2-f][1,2,4]triazin-2-ylamino)phenyl)acrylamide]
- Selective inhibitory activity against enzymes [IC50 (EGFR WT)/IC50 (T790M/L858R)] [1]: 10
- IC50 [1]: 0.001 µM
- IC50 [2]: 0.001 µM
- Selective inhibitory activity against targets at the cell level [IC50 (A431 cell)/IC50 (H1975 cell)] [2]: 93
- IC50 [3]: 0.093 µM
- IC50 [4]: 0.008 µM
- Selective inhibitory activity against cell growth [IC50 (A431 cell)/IC50 (H1975 cell)] [4]: 21
- IC50 [5]: 0.168 µM
- IC50 [6]: 3.91 µM
- IC50 [7]: 0.01 µM

SMILES: C=CC(=O)Nc1cc(Nc2ncc3ccc(-c4cnn(C)c4)n3n2)c(OC)cc1N1CCN(C)CC1 [Compound J-4, N-(4-methoxy-5-(7-(1-methyl-1H-pyrazol-4-yl)pyrrolo[1,2-f][1,2,4]triazin-2-ylamino)-2-(4-methyl-1-yl)phenyl)acrylamide]
- Selective inhibitory activity against enzymes [IC50 (EGFR WT)/IC50 (T790M/L858R)] [1]: 17.5
- IC50 [1]: 0.002 µM
- IC50 [2]: 0.004 µM
- Selective inhibitory activity against targets at the cell level [IC50 (A431 cell)/IC50 (H1975 cell)] [2]: 450
- IC50 [3]: 1.8 µM
- IC50 [4]: 0.014 µM
- Selective inhibitory activity against cell growth [IC50 (A431 cell)/IC50 (H1975 cell)] [4]: 32.9
- IC50 [5]: 0.461 µM
- IC50 [6]: 3.65 µM
- IC50 [7]: 0.035 µM

SMILES: C=CC(=O)Nc1cc(Nc2ncc3ccc(C4=CCCCC4)n3n2)c(OC)cc1N(C)CCN(C)C [Compound J-5, N-(5(7-cyclohexenyl-pyrrolo[1,2-f][1,2,4]triazin-2-ylamino)-2-((2-(dimethylamino)ethyl)(methyl)amino)-4-methoxyphenyl)acrylamide]
- Selective inhibitory activity against enzymes [IC50 (EGFR WT)/IC50 (T790M/L858R)] [1]: 3
- IC50 [1]: 0.003 µM
- IC50 [2]: 0.106 µM
- Selective inhibitory activity against targets at the cell level [IC50 (A431 cell)/IC50 (H1975 cell)] [2]: 2
- IC50 [3]: 0.208 µM
- IC50 [4]: 0.023 µM
- Selective inhibitory activity against cell growth [IC50 (A431 cell)/IC50 (H1975 cell)] [4]: 15.4
- IC50 [5]: 0.354 µM
- IC50 [6]: 2.82 µM
- IC50 [7]: 0.009 µM

SMILES: C=CC(=O)Nc1cc(Nc2ncc3ccc(-c4cccnc4)n3n2)c(OC)cc1N(C)CCN(C)C [Compound J-6, N-(2-((2-(dimethylamino)ethyl)(methyl)amino)-4-methoxy-5-(7-(pyridin-3-yl)pyrrolo[1,2-f][1,2,4]triazin-2-ylamino)phenyl)acrylamide]
- Selective inhibitory activity against enzymes [IC50 (EGFR WT)/IC50 (T790M/L858R)] [1]: 5.42
- IC50 [1]: 0.0024 µM
- IC50 [2]: 0.027 µM
- Selective inhibitory activity against targets at the cell level [IC50 (A431 cell)/IC50 (H1975 cell)] [2]: 11.4
- IC50 [3]: 0.309 µM
- IC50 [4]: 0.028 µM
- Selective inhibitory activity against cell growth [IC50 (A431 cell)/IC50 (H1975 cell)] [4]: 15.3
- IC50 [5]: 0.427 µM
- IC50 [6]: 8.21 µM
- IC50 [7]: 0.013 µM

SMILES: C=CC(=O)Nc1cc(Nc2ncc3ccc(C4CC4)n3n2)c(OC)cc1N(C)CCN(C)C [Compound J-8, N-(5(7-cyclopropylpyrrolo[1,2-f][1,2,4]triazin-2-ylamino)-2-((2-(dimethylamino)ethyl)(methyl)amino)-4-methoxyphenyl)acrylamide]
- Selective inhibitory activity against enzymes [IC50 (EGFR WT)/IC50 (T790M/L858R)] [1]: 56
- IC50 [1]: 0.002 µM
- IC50 [2]: 0.163 µM
- Selective inhibitory activity against targets at the cell level [IC50 (A431 cell)/IC50 (H1975 cell)] [2]: 3
- IC50 [3]: 0.495 µM
- IC50 [4]: 0.097 µM
- Selective inhibitory activity against cell growth [IC50 (A431 cell)/IC50 (H1975 cell)] [4]: 32.9
- IC50 [5]: 3.19 µM
- IC50 [7]: 0.112 µM
